Several values for one entry are separate records, joined by “and”; a condition that tells them apart may be missing. Equal values may be shown once.
Experiments:
[1] = target: T1, Corticotropin-releasing factor receptor 1 (Homo sapiens, UniProt P34998); assay: (§1) Homogeneous Time-Resolved Fluorescence Assay: Chinese hamster ovary (CHO) cells expressing either the human or rat recombinant CRF-1 or human CRF-2alpha (Chen et al, Proc Natl Acad Sci USA 90, 8967-8971, 1993; Liaw et al, Endocrinology 137, 72-77, 1996) are propagated in Dulbecco's modified Eagle medium supplemented with 10% foetal calf serum, non-essential amino acids, 100 U/ml penicillin, 100 mg/l streptomycin and 1 g/l geneticin. CHO cells expressing the rat CRF-2beta receptor (Wu et al, Endocrinology 148, 1675-1687, 2007) are propagated in HAM's-F12 Glutamax supplemented with 10% foetal calf serum, 100 IU/ml penicillin, 100 mg/l streptomycin, 600 ug/ml hygromycin, 10 ug/ml blasticidin and induced with 1 ug/ml of tetracyclin for 24 hours prior to experimentation. For cyclic AMP determinations the Homogeneous Time-Resolved Fluoresce (HTRF) CAMP dynamic 2 kit (Cisbio International, France) was used as per manufacturers' instructions.; assay type: cell-based
T1 sequence (P34998 whole entry): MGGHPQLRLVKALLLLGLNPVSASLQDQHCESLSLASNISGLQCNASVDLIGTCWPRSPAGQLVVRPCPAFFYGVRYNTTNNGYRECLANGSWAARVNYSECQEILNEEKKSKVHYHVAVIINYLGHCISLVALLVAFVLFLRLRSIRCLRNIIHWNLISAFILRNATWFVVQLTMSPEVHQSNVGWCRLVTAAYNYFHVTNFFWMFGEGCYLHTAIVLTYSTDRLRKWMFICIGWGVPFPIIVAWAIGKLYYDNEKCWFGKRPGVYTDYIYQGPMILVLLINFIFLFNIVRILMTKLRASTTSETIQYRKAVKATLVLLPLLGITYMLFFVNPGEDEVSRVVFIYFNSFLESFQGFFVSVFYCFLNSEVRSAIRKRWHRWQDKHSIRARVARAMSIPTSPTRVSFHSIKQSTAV

[2] = target: T2, Corticotropin-releasing factor receptor 2 (Homo sapiens, UniProt Q13324); assay: as §1; assay type: cell-based
T2 sequence (Q13324 whole entry): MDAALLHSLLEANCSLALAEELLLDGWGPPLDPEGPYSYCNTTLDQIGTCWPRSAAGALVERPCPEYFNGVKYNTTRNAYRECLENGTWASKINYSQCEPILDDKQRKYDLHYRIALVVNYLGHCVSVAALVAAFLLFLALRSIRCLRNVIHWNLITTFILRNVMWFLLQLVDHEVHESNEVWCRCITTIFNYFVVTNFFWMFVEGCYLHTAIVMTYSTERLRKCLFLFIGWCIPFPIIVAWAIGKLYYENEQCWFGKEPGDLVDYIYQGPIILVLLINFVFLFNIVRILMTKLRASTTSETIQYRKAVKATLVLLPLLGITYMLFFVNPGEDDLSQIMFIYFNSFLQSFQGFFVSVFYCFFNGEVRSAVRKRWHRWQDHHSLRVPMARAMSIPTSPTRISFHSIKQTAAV

Row | SMILES | IC50 [1] | IC50 [2]
1 | Cc1cnn(C[C@H]2CC[C@H](NC(=O)c3cc(C(F)(F)F)ccc3Cl)CC2)c1 | 0.132 µM | 
2 | CCc1cc(C)nn1C[C@H]1CC[C@H](NC(=O)c2cc(C(F)(F)F)ccc2Cl)CC1 | 0.022 µM | 
3 | CCc1cc(CC)n(C[C@H]2CC[C@H](NC(=O)c3cc(C(F)(F)F)ccc3Cl)CC2)n1 | 0.021 µM | 
4 | COc1ccc(-c2c(NC[C@H]3CC[C@H](NC(=O)c4cc(C(F)(F)F)ccc4Cl)CC3)n[nH]c2C)c(Cl)c1 | 0.035 µM | 
5 | CCc1cc(C)n(C[C@H]2CC[C@H](NC(=O)c3cc(C(F)(F)F)ccc3Cl)CC2)n1 |  | 2.03 µM
6 | O=C(N[C@H]1CC[C@H](Cn2ncc3c2CCC3)CC1)c1cc(C(F)(F)F)ccc1Cl | 0.17 µM | 
7 | Cc1cc(CO)n(C[C@H]2CC[C@H](NC(=O)c3cc(Cl)cnc3C)CC2)n1 | 6.96 µM | 
8 | O=C(N[C@H]1CC[C@H](Cn2cc(Cl)c(CO)n2)CC1)c1cc(C(F)(F)F)ccc1Cl | 0.095 µM | 4.85 µM
9 | Cc1cn(C[C@H]2CC[C@H](NC(=O)c3cc(C(F)(F)F)ccc3Cl)CC2)nc1C | 0.167 µM | 
10 | Cc1ncc(Cl)cc1C(=O)N[C@H]1CC[C@H](Cn2nc(C)c(Cl)c2C)CC1 | 0.256 µM | 
11 | Cc1cc(-c2ccc3c(c2)OCO3)nn1C[C@H]1CC[C@H](NC(=O)c2cc(C(F)(F)F)ccc2Cl)CC1 | 0.059 µM | 
12 | CCc1cc(CC)n(C[C@H]2CC[C@H](NC(=O)c3cc(Cl)cnc3C)CC2)n1 | 0.16 µM | 
13 | Cc1ncc(Cl)cc1C(=O)N[C@H]1CC[C@@H](Cn2nc(-c3ccc(F)cc3)cc2C)CC1 | 0.18 µM | 4.63 µM
14 | Cc1ncc(Cl)cc1C(=O)N[C@H]1CC[C@H](Cn2nc(-c3cccnc3)cc2C)CC1 | 0.142 µM | 3.74 µM
15 | Cc1ncc(Cl)cc1C(=O)N[C@H]1CC[C@@H](Cn2nc(-c3ccccc3)cc2C)CC1 |  | 4.94 µM
16 | COc1ccc(-c2cc(C)n(C[C@H]3CC[C@H](NC(=O)c4cc(C(F)(F)F)ccc4Cl)CC3)n2)cc1 | 0.082 µM | 
17 | Cc1cc(C)n(C[C@H]2CC[C@H](NC(=O)c3cc(C(F)(F)F)cnc3C)CC2)n1 | 0.634 µM | 
18 | COc1cc(C)nn1C[C@H]1CC[C@H](NC(=O)c2cc(C(F)(F)F)ccc2Cl)CC1 | 0.067 µM | 
19 | Cc1ncc(Cl)cc1C(=O)N[C@H]1CC[C@H](Cn2nc(CO)cc2C)CC1 | 0.665 µM | 
20 | Cc1cc(C)n(C[C@H]2CC[C@H](NC(=O)c3cc(Cl)cnc3C)CC2)n1 | 0.088 µM and 0.262 µM | 
21 | CCc1[nH]nc(NC[C@H]2CC[C@H](NC(=O)c3cc(Cl)cnc3C)CC2)c1C | 0.134 µM | 4.88 µM
22 | Cc1ncc(Cl)cc1C(=O)N[C@H]1CC[C@H](Cn2cc3c(n2)CCCC3)CC1 | 0.318 µM | 

Source: ChEMBL document CHEMBL3639007, “Cyclohexyl amide derivatives as CRF receptor antagonists” (2014)
